SMILES: CCCCCCCCCCCCCCCCOc1nc2ccc(C)cc2c(=O)o1
- solubility (mole fraction) (in acetone, 278.15 K): 0.0814
- solubility (mole fraction) (in acetone, 283.15 K): 0.0965
- solubility (mole fraction) (in acetone, 288.15 K): 0.114
- solubility (mole fraction) (in acetone, 293.15 K): 0.133
- solubility (mole fraction) (in acetone, 298.15 K): 0.157
- solubility (mole fraction) (in acetone, 303.15 K): 0.18
- solubility (mole fraction) (in acetone, 308.15 K): 0.208
- solubility (mole fraction) (in acetone, 313.15 K): 0.245
- solubility (mole fraction) (in acetone, 318.15 K): 0.284
- solubility (mole fraction) (in acetone, 323.15 K): 0.327
- solubility (mole fraction) (in acetonitrile, 278.15 K): 0.0619
- solubility (mole fraction) (in acetonitrile, 283.15 K): 0.0759
- solubility (mole fraction) (in acetonitrile, 288.15 K): 0.089
- solubility (mole fraction) (in acetonitrile, 293.15 K): 0.106
- solubility (mole fraction) (in acetonitrile, 298.15 K): 0.123
- solubility (mole fraction) (in acetonitrile, 303.15 K): 0.144
- solubility (mole fraction) (in acetonitrile, 308.15 K): 0.167
- solubility (mole fraction) (in acetonitrile, 313.15 K): 0.191
- solubility (mole fraction) (in acetonitrile, 318.15 K): 0.222
- solubility (mole fraction) (in acetonitrile, 323.15 K): 0.259
- solubility (mole fraction) (in isopropanol, 278.15 K): 0.0702
- solubility (mole fraction) (in isopropanol, 283.15 K): 0.0829
- solubility (mole fraction) (in isopropanol, 288.15 K): 0.0979
- solubility (mole fraction) (in isopropanol, 293.15 K): 0.116
- solubility (mole fraction) (in isopropanol, 298.15 K): 0.137
- solubility (mole fraction) (in isopropanol, 303.15 K): 0.158
- solubility (mole fraction) (in isopropanol, 308.15 K): 0.181
- solubility (mole fraction) (in isopropanol, 313.15 K): 0.207
- solubility (mole fraction) (in isopropanol, 318.15 K): 0.241
- solubility (mole fraction) (in isopropanol, 323.15 K): 0.28
